Experiments:
[1] = system: NCI-H1975 cells (EGFR L858R + T790M); test: Cell growth inhibition, methylene blue assay, NCI-H1975; type: cell-based, human; details: NCI-H1975, Double (L858R + T790M), 72 hours, mean±SD
Experimental: (§1) NCI-H1975 and HCC827 were obtained from the ATCC. QG56 cells were obtained from Prof. Alexander Levitzki's lab, The Silberman Institute of Life Sciences, the Hebrew University, Jerusalem. […] All media were supplemented with fetal bovine serum (FBS, (10%)) and antibiotics (penicillin 10^4 units/L, streptomycin 10 mg/L) (BI, Israel).
(§2) Four human NSCLC cell lines were selected: QG56, HCC827, NCI-H3255 and NCI-H1975. These cell lines harbor the prevailing EGFR variants identified in NSCLC patients, including the wild-type receptor (QG56 cells) and the two most common activating mutations in the TK domain of the receptor: an exon 19 deletion (ΔE746-A750) (HCC827 cells) and the L858R point mutation in exon 21 (NCI-H3255). NCI-H1975 cells were also selected, since on top of the activating L858R point mutation, these cells harbor the secondary T790M mutation in exon 20, which confers resistance to TKI-therapy.
(§3) The median inhibitory concentration (IC50) of the tested compound for cell growth of each cell line was then calculated using GraphPad Prism 5.0 software. Results are presented as mean±SD.

[2] = system: NCI-H3255 cells (EGFR L858R point mutation); test: Cell growth inhibition, methylene blue assay, NCI-H3255; type: cell-based, human; details: NCI-H3255, Activating (L858R point mutation), 72 hours, mean±SD
Experimental: as §1, §2, §3

QG56 cells (wt EGFR) = test: Cell growth inhibition, methylene blue assay, QG56; type: cell-based, human; details: QG56, None (wt EGFR), 72 hours, mean±SD
Experimental: as §1, §2, §3

HCC827 tumor = test: PET/CT scans of HCC827 tumor-bearing mice; type: in vivo
Experimental: (§4) Dynamic (1 hour) PET scans are performed using Inveon™ MM PET-CT small animal-dedicated scanner (Siemens Medical Solutions, USA). […] Using image analysis tools, volume of interests (VOIs) are drawn for selected organs based on the PET and CT images, and the kinetics of radioactivity distribution in vivo (time-activity curves, (TACs)) is determined for these organs, and primarily for the NSCLC xenografts. The standardized uptake values (SUVs) of each radiolabeled compound in tumors are calculated and compared between the different tumors.
(§5) In additional PET/CT studies, five QG56 (erlotinib-insensitive) and five HCC827 (erlotinib-sensitive) tumor-bearing mice were scanned for 60 minutes following i.v. injection of [^18F]6-O-FEE (7.14±0.7 Mbq).

QG56 tumor = test: PET/CT scans of QG56 tumor-bearing mice; type: in vivo; details: QG56 tumors, 60 minutes after i.v. injection
Experimental: as §4, §5

[3] = Stability of the final formulation in solution (radio-TLC and HPLC); type: physicochemical; details: final formulation (ethanol/isotonic saline)
Experimental: In brief, a solution of ethylene 1,2-(bis) tosylate (11-13 mg) dissolved in anhydrous MeCN ([…]) was added to the dried [^18F]fluoride. The reaction is heated to 120° C. while stirring for 10 minutes, and the reaction mixture was thereafter cooled to 50° C. The ^18F-fluoroethyltosylate was then further diluted with 1 mL MeCN and transferred to a second reactor that was pre-stirred and heated under argon stream for 5 minutes with 9-11 mg of desmethylerlotinib dissolved in 0.6 mL of DMF and 6-8 mg of NaH. […]
The radiochemical purity was determined using analytical HPLC equipped with C18 analytical Luna column (5 μm, 4.6 mm>250 mm, Luna, phenomenex, Torrance, Calif., USA), with a variable wavelength UV detector operated at λ=254 nm, and a radioactivity detector with NaI crystals, and was routinely greater than 98%. […] Solvent residues were analyzed by GC, using a 1 μL injection of the final product, and compared to a standard solution containing 0.04% acetonitrile and 0.5% acetone. […]

Row | Compound | IC50 [1] | IC50 [2] | IC50 (QG56 cells (wt EGFR)) | higher uptake in HCC827 tumors compared to QG56 tumors (HCC827 tumor; 60 minutes after i.v. injection, mice, p=0.0072) | reduction of tumor SUV by erlotinib in excess (HCC827 tumor; HCC827 tumor-bearing mice, erlotinib 6.1±0.3 mg/kg 10 minutes prior, p=0.018) | tumor SUV (HCC827 tumor; HCC827 tumor-bearing mice, erlotinib in excess (6.1±0.3 mg/kg) 10 minutes prior to injection) | tumor SUV (HCC827 tumor; HCC827 tumor-bearing mice, without erlotinib pre-administration (blocking comparison)) | tumor SUV (HCC827 tumor; HCC827 tumors, 60 minutes after i.v. injection, mice) | higher uptake in HCC827 tumor compared to NCI-H1975 tumor (HCC827 tumor; preliminary PET/CT study, i.v. injection, 60 minutes scan, mice) | tumor SUV (QG56 tumor) | stability in solution [3]
1 | C#Cc1cccc(Nc2ncnc3cc(OCCOC)c(OCCF)cc23)c1 [6-O-FEE, 6-O-fluoroethylerlotinib] | 3.6 ± 1 µM | 33 ± 40 nM | 14.4 ± 5 µM | – | – | – | – | – | – | – | –
2 | C#Cc1cccc(Nc2ncnc3cc(OCCOC)c(OCC[18F])cc23)c1 [[^18F]6-O-FEE, [^18F]6-fluoroethylerlotinib] | – | – | – | 2.5 fold | about 40% | 0.414 | 0.704 | 0.70 | 2.5-3 fold | 0.28 | remained stable in solution for over four hours
